From patent publication US6436946B1, “Xanthine-containing compositions for oral administration and uses related thereto” (priority 1997, dated 2002) come the findings set out here.

Assay [1] concerns subjects. Kind of assay: Stimulant effect: score in video game of skill (Pilot Wing). Format: in vivo, human. To be noted: five subjects, crossover with placebo, 180 mg caffeine, Formulation I. On the procedure:
Five subjects were tested over a period of three days. […] Both prior to and after consuming the composition, each subject played a video game of skill called Pilot Wing™ made by Nintendo™.

The test system of assay [2] is subjects. Put plainly: Standard short-term memory test (repeat series of numbers backward). Format: in vivo, human. The conditions noted are these: three of the five subjects, 30 minutes after ingestion. On the procedure: The test consisted of an examiner reading a series of numbers to the subject and the subject subsequently being asked to repeat said numbers backward. In all cases, the test was initiated 30 minutes after ingestion of the composition.

SMILES strings stand for the structures.

Regarding `Cn1c(=O)c2c(ncn2C)n(C)c1=O` [caffeine], the “video game score after consuming the composition” value with subjects [1] is given as “higher scores after consuming the caffeine, compared to consuming the placebo”. For the same molecule, the “digits repeated backwards without error” value in the assay on subjects [2] is listed as “could not repeat this accomplishment”.
